Consider 2 compounds from patent publication US6248718A, “Lesion-directed dry dosage forms of antibacterial agents for the treatment of acute mucosal infections of the oral cavity” (priority 1999, dated 2001).

Data set [1] can be described thus: Topical treatment of patients with aphthous ulcers with troches. Type of data set: in vivo, human. As for the experimental part:
Patients with aphthous ulcers were advised to brush their teeth to rid them of food residues, and to rinse their mouths with water prior to initiating treatment. One penicillin/magnesium stearate troche was placed in the patients mouths directly over the ulcerated lesion. The troche was dissolved or disintegrated in a minimum amount of saliva directly over the ulcer in no more than 15 minutes, preferably in about 8 to about 12 minutes. The patients were advised to keep the ingredients of the disintegrated troche at the site of the lesion as long as possible. Food and beverages were avoided for one hour after each treatment. If multiple aphthous ulcers were present, only one troche is required for the treatment of a cluster of small ulcers. The topical treatments were conducted 4 times daily, for example, after breakfast, after lunch, after dinner and before bed time for no more than 4 days. […] The burning sensation lessened with subsequent applications.
For instance, the first sign of healing is usually the fading of the hyperemic zone at the periphery of the ulcer and the lessening of edema at the base of the ulcer. The membrane covering the ulcer becomes thinner, more translucent, more pearly white instead of a grayish-yellowish white prior to the application and contract with the troche. […]

Data set [2] is described as follows: Local concentration of penicillin in saliva after a troche containing 50 mg penicillin G. Type of data set: in vivo, human. As for the experimental part:
The local concentration of penicillin in the saliva was determined as follows. […] This loculated pocket of saliva was not swallowed and was not to be diluted with excess saliva from other parts of the mouth for one hour. Two samples were taken for assay to determine the peak and trough local concentrations of penicillin during the one-hour duration of medicinal treatment. At the time when the troche was completely dissolved and one hour later, aliquots of 10 microliters were pipetted from this pocket of saliva solution at the site of medication, representing the peak level and the trough level of antibiotic concentration, and transferred into 10 ml of distilled water to make a 1:1.000 dilution and into 1 ml of distilled water to make a 1:100 dilution, respectively. The diluted saliva antibiotic solutions were passed through a sterile bacteria-filter to remove any bacterial or fungal contaminants of the oral flora.
For determination of the peak concentration, 1 ml of the bacteria-free filtrate was further diluted with 9 ml of nutrient broth to achieve a 1:10,000 dilution of the saliva. Then a serial two-fold dilution was made of this 1:10,000 diluted saliva sample with an equal volume of nutrient broth in a roll of test tubes to obtain a series of 1 ml aliquots of nutrient broth in which the saliva was diluted to 20,000, 40,000, 80,000, 160,000, 320,000, 640,000, 1,280,000 and 2,560,000 folds respectively. […] Thus the final dilutions of the saliva sample were in the range of 40,000 to 5,120,000 folds.
For determining the trough concentration, the entire 1 ml of the 1:100 diluted saliva filtrate was used to make the serial dilutions so that the final dilutions of saliva sample were in the range of 4,000 to 256,000 folds in the final test culture.
As control standards, a series of test tubes containing 1 ml of nutrient broth with varying concentrations of penicillin G potassium salt ranging from 0.1 units to 10 units/ml were similarly mixed with an equal volume of nutrient broth freshly inoculated with the standard tubes of Staphylococcus aureus. Both the test and control standard tubes were incubated at 37° C. for 18 hours. Among the test tubes showing no gross evidence of bacterial growth, the one containing the highest dilution of saliva and the one containing the least amount of penicillin G were considered as having the identical concentration of penicillin, i.e. the MIC of the staphylococcus aureus.

For data set [3], the system named is Staphylococcus aureus ATCC 29213. Put plainly: MIC for standard strain used in saliva antibiotic assay (Examples VII-IX). The settings on record: nutrient broth, 37° C., 18 hours. It counts as cell-based. On the procedure: Each filtered mixture in test tube was inoculated with 0.1 ml of a 1:1,000 dilution of a 12 hour broth culture of Staphylococcus aureus ATCC 29213.
A row of 6 test tubes each containing 2 ml of nutrient broth with decreasing concentrations of penicillin G potassium from 6.2 to 0.16 mcg/ml, using a serial double dilution method described in a., was prepared and similarly inoculated with 0.1 ml broth culture of Staphylococcus aureus ATCC 29213 as the standard.
All test tubes were incubated at 37° C. for 18 hours and observed for bacterial growth against an inoculated broth containing neither antibiotic nor saliva samples.
In this study, the drug powder was suspended in one teaspoonful of water and swallowed by the test subjects two hours after breakfast, followed by drinking an 8 Oz. glass of water. The test subjects refrained from drinking or eating for the next three hours. Six samples of saliva were collected from each subject at 30-minute intervals in succession in the next three hours. An aliquot of 0.2 ml from each saliva sample was transferred to 3.8 ml of nutrient broth. The mixture of the latter was forced to pass a bacterial filter. Two (2) ml of the bacteria-free filtrate was pipetted out into a sterile test tube and inoculated with 0.1 ml of a 1:1,000 dilution of a 12 hours broth culture of Staphylococcus aureus ATCC 29213 and incubated at 37° C. for 18 hours. […]

The test system of data set [4] is bacteria in human saliva. Description: Inhibition of bacterial growth in human saliva in vitro (Example IV). Type of data set: cell-based. As for the experimental part: For this study, five healthy adult volunteers, three men and two women, were asked to refrain from drinking and eating for two hours after breakfast. At the end of two hours, about five (5) ml of saliva was obtained from the oral cavity of each volunteer. Aliquots of 0.1 ml of saliva were pipetted immediately from each saliva sample and spread over the surface of two 5% sheep blood agar plates with a sterile plastic loop. One inoculated blood agar plate was incubated in an aerobic atmosphere containing 5% CO2, and the other anaerobically at 37° C. for 18 hours, as untreated controls.
Aliquots of 0.2 ml of the saliva from each volunteer's sample were pipetted into sterile test tubes, and labeled from No. 2 to No. 13. Five equal doses of dry powder of the USP grade penicillin G potassium salt, 200 mg each, were weighed and put into five sterile test tubes, all labeled No. 1. The dry powder of antibiotic was dissolved in 0.4 ml saliva obtained from each of the five volunteers to constitute an initial concentration of antibiotic concentration of […] in saliva. An aliquot of 0.2 ml of the saliva antibiotic solution was pipetted from tube No. 1 into tube No. 2. After having been thoroughly mixed, 0.2 ml of the content in tube No. 2 was pipetted to tube No. 3, and so forth continuously in succession to make a serial double dilution of penicillin G potassium solutions in saliva through tube No. 13. Finally, the test tubes contained different concentrations of penicillin G potassium in the saliva of five volunteers, as follows.
The mixtures of antibiotic and saliva in the test tubes were incubated at 37° C. One hour later, an aliquot of 0.1 ml was pipetted from the content of each tube, first dropped in the center of a blood agar plate and then spread to the periphery of the plate surface. The plates were incubated aerobically at 37° C. with 5% carbon dioxide in the atmosphere for 18 hours and were examined for bacterial growth.

The subject of data set [5] is Staphylococcus aureus (ATCC 29213). The settings on record: standard strain; cited from earlier work.
For data set [6] the following is noted: earlier treatments of oral infections / aphthous ulcers; cited from earlier work.
Data set [7] deals with Staphylococcus aureus (ATCC 29213). Put plainly: MIC for standard strain used in saliva antibiotic assay (Examples I, II). Type of data set: cell-based. The settings on record: nutrient broth, 37° C., 18 hours. From the text: The final concentrations of oxytetracycline in the control standard nutrient broth were 0.25 mcg/ml, 0.5 mcg/ml, 1.0 mcg/ml, 2.0 mcg/ml, 4.0 mcg/ml, and 8.0 mcg/ml. The final dilutions of saliva sample were 1/50,000, 1/100,000, 1/200,000, 1/400,000, 1/800,000 and 1/1,600,000 for the peak concentration test tubes and 1/4,000. 1/8,000, 1/16,000 and 1/32,000 for the trough concentration test tubes. The Staphylococcus aureus (ATCC 29213) was also used as the standard test microorganism.

For data set [8], the system named is bacteria in saliva of healthy volunteers. Put plainly: Inhibition of bacterial growth in the saliva in vivo (Example V). As to conditions: in theory, 0.1 ml saliva. As for the experimental part:
Five healthy adult volunteers, three men and two women, were asked to refrain from drinking or eating for two hours after breakfast. At the end of two hours, an aliquot of 0.1 ml of saliva was pipetted from the mouth of each volunteer and spread over the surface of a sheep blood agar plate with a sterile plastic loop. The inoculated blood agar plate was incubated in an aerobic atmosphere containing 5% CO2 as pre-medication control. Then 100 mg, 50 mg, 20 mg, 10 mg and 2 mg of penicillin G potassium dry powder, USP grade, were placed in the right buccal pouch with a spatula between the cheek and the lower gum of each volunteer, respectively. The volunteers were asked to retain the dissolved penicillin powder at the site of medication as concentrated as possible, not to be diluted by saliva from other parts of the mouth for one hour.
At the end of one hour, 0.1 ml of saliva from each volunteer was pipetted from the right buccal pouch where the medication was placed, and inoculated and spread onto the surface of a sheep blood agar plate. The inoculum was spread with a sterile plastic loop.

The subject of data set [9] is Gram-negative bacilli (Salmonella, Shigella, most Escherichia coli strains, all Proteus mirabilis strains and most Bacteroides strains). The settings on record: in vitro; cited from earlier work.
For data set [10] the following is noted: intravenous injection of 500 mg penicillin G; cited from earlier work.

Converted amounts (≈) assume the structure as drawn.

As for `CC1(C)S[C@@H]2[C@H](NC(=O)Cc3ccccc3)C(=O)N2[C@H]1C(=O)O` [penicillin], the adverse reactions result in [1] (4 days of penicillin medication) was “no observed adverse reactions of stomatitis or discoloration of the tongue”. Further, the “state of ulcer membrane” value in data set [1] (after 4 days of penicillin medication) is recorded as “only remnants of a thin pearly whitish membrane remain, if any”. In data set [2] (assuming troche is dissolved in 0.1 ml of saliva), the “initial concentration at the ulcer” value is listed as “up to 500 mg/ml”. The “local trough concentration in saliva” value in data set [2] (human, in vivo, 60 min) is reported as “about 12,000 Units per 1 ml saliva”. Moreover, the concentration at 1 h in [2] (human, saliva, 50 mg, 50 mg troche, end of one hour, read-out: local trough concentration in saliva) is roughly 7500 µg/mL. In [3], the “concentration at which bacteria grew to full turbidity” value is no more than 0.37 µg/mL. Further, the “MIC / concentration inhibiting growth of oral flora in saliva” value in [4] (in vitro, aerobic) is 2000 µg/mL. For the same compound, the “known minimum inhibitory concentration (MIC)” value in data set [5] is listed as 0.25-2 units/mi. Besides, the effectiveness of treatment result in [6] is “ineffective”.
As to `CC1(C)S[C@@H]2[C@H](NC(=O)Cc3ccccc3)C(=O)N2[C@H]1C(=O)O` [penicillin G], the MIC was found to be 1 unit/ml in data set [7] and 2000 µg/mL (≈ 5.98 mM) in [4] (Homo sapiens, read-out: MIC / concentration inhibiting growth of oral flora in saliva). Also, in data set [4] (1 mg/ml, one hour's incubation), the bactericidal effect result is recorded as “not "bactericidal" within one hour's incubation time”. The “theoretical dose sufficient for initial topical MIC concentration of 2 mg/ml” value in data set [8] came out at 0.2 mg. Besides, in data set [9], the “cut-off minimum inhibition concentration at which many Gram-negative bacilli fall into sensitive category” value is no more than 740 µg/mL. The “average peak blood level” value in [10] was 16 mcg/ml and about 16 mcg/ml and about 26 units/mi.
